In ChEMBL document CHEMBL5532720, “A Potent Solution for Tumor Growth and Angiogenesis Suppression via an ELR+CXCL-CXCR1/2 Pathway Inhibitor” (ACS Med Chem Lett, 2024):
Values after ≈ are worked out from the molar mass of the structure shown. Active and inactive are the calls of the source. No cut-off for these calls is given here.

Columns and labels:
[1] = target: Serine/threonine-protein kinase PLK1 (Homo sapiens) (UniProt P53350); assay: Inhibition of PLK1 (unknown origin) at 10 uM in presence of ATP at Km concentration
[2] = Antiproliferative activity against human Sunitinib-resistant 786-R cells incubated for 48 hrs by XTT assay; format: functional, cell-based
[3] = target: Ephrin type-B receptor 4 (Homo sapiens) (UniProt P54760); assay: Inhibition of EPHB4 (unknown origin) at 10 uM in presence of ATP at Km concentration
[4] = test system: Cisplatin and radiotherapy resistant CAL33RR; assay: Inhibition of CXCL8-dependent cell migration in human Cisplatin and radiotherapy resistant CAL33RR cells at 0.5 uM incubated for 24 hrs by Boyden chamber based crystal violet staining analysis; format: functional
[5] = target: Misshapen-like kinase 1 (Homo sapiens) (UniProt Q8N4C8); assay: Inhibition of MINK1 (unknown origin) at 10 uM in presence of ATP at Km concentration
[6] = Stability of compound at pH 12 measured after 24 hrs; format: physicochemical; details: buffer, pH 12, 24 h
[7] = target: Ephrin type-A receptor 2 (Homo sapiens) (UniProt P29317); assay: Inhibition of EPHA2 (unknown origin) at 10 uM in presence of ATP at Km concentration
[8] = target: Serine/threonine-protein kinase tousled-like 2 (Homo sapiens) (UniProt Q86UE8); assay: Inhibition of TLK2 (unknown origin) at 10 uM in presence of ATP at Km concentration
[9] = test system: A498; assay: Downregulation of CXCL8 mRNA expression in human A498 cells at 1 to 2.5 uM incubated for 48 hrs by qPCR analysis; format: functional, cell-based; details: dose 1-2.5 µM
[10] = test system: A498; assay: Inhibition of CXCL8 secretion in human A498 cells at 1 to 2.5 uM incubated for 48 hrs by ELISA; format: functional, cell-based; details: dose 1-2.5 µM
[11] = test system: Cisplatin and radiotherapy resistant CAL33RR; assay: Inhibition of cell invasion in human Cisplatin and radiotherapy resistant CAL33RR cells cultured as 3D spheroid at 5 uM measured after 7 days by light microscopic imaging analysis; format: functional, cell-based; details: time 7.0 day
[12] = target: Mitogen-activated protein kinase kinase kinase 11 (Homo sapiens) (UniProt Q16584); assay: Inhibition of MAP3K11 (unknown origin) at 10 uM in presence of ATP at Km concentration
[13] = target: Focal adhesion kinase 1 (Homo sapiens) (UniProt Q05397); assay: Inhibition of PTK2 (unknown origin) at 10 uM in presence of ATP at Km concentration
[14] = target: Phosphorylase b kinase gamma catalytic chain, liver/testis isoform (Homo sapiens) (UniProt P15735); assay: Inhibition of PHKG2 (unknown origin) at 10 uM in presence of ATP at Km concentration
[15] = Stability in mouse hepatocytes assessed as intrinsic clearance measured per 10^6 cells; format: ADME, cell-based, Hepatocyte; details: read-out: CLH
[16] = target: Ephrin type-A receptor 5 (Homo sapiens) (UniProt P54756); assay: Inhibition of EPHA5 (unknown origin) at 10 uM in presence of ATP at Km concentration
[17] = Aqueous solubility of compound in PBS; format: physicochemical
[18] = Aqueous solubility of compound in SGF at pH 2; format: ADME
[19] = Genotoxicity in Salmonella typhimurium TA98 upto 100 uM in absence of S9 fraction by Ames test; format: toxicity; details: salmonella enterica subsp. enterica serovar typhimurium, s9, 100 µM
[20] = test system: A498; assay: Antimetastatic activity against human A498 cells labeled with vybrant DiD cell-labeling solution xenografted in zebrafish embryo assessed as fold reduction in metastasis area at 1 uM pre-infected with cells for 24 hrs followed by compound addition and measured after 48 hrs by fluorescence microscopic imaging analysis; format: functional
[21] = target: CDK8/Cyclin C (Homo sapiens) (UniProt P49336+P24863); assay: Inhibition of CDK8/cyclin C (unknown origin) at 10 uM in presence of ATP at Km concentration; format: protein-complex assay
[22] = Tmax in NOD SCID mouse at 50 mg/kg, po; format: ADME, organism-based; details: in vivo
[23] = AUC (0 to infinity) in NOD SCID mouse at 1 mg/kg, iv; format: ADME, organism-based; details: in vivo
[24] = test system: CAL-27; assay: Antiproliferative activity against human CAL-27 cells incubated for 48 hrs by XTT assay; format: functional, cell-based; details: CAL-27, 48 h
[25] = Half-life in NOD SCID mouse at 1 mg/kg, iv; format: ADME, organism-based; details: in vivo
[26] = target: Ribosomal protein S6 kinase alpha-2 (Homo sapiens) (UniProt Q15349); assay: Inhibition of RPS6KA2 (unknown origin) at 10 uM in presence of ATP at Km concentration
[27] = Stability in mouse plasma assessed as half-life; format: ADME, cell-free
[28] = target: Ribosomal protein S6 kinase beta-2 (Homo sapiens) (UniProt Q9UBS0); assay: Inhibition of RPS6KB2 (unknown origin) at 10 uM in presence of ATP at Km concentration
[29] = Oral bioavailability in NOD SCID mouse at 50 mg/kg; format: ADME, organism-based; details: in vivo
[30] = target: Tyrosine-protein kinase Yes (Homo sapiens) (UniProt P07947); assay: Inhibition of YES1 (unknown origin) at 10 uM in presence of ATP at Km concentration
[31] = target: Phosphatidylinositol 4-kinase beta (Homo sapiens) (UniProt Q9UBF8); assay: Inhibition of PI4KB (unknown origin) at 10 uM in presence of ATP at Km concentration
[32] = target: Mitogen-activated protein kinase kinase kinase kinase 4 (Homo sapiens) (UniProt O95819); assay: Inhibition of MAP4K4 (unknown origin) at 10 uM in presence of ATP at Km concentration
[33] = Volume of distribution in NOD SCID mouse at 1 mg/kg, iv; format: ADME, organism-based; details: in vivo
[34] = target: Protein kinase C eta type (Homo sapiens) (UniProt P24723); assay: Inhibition of PRKCH (unknown origin) at 10 uM in presence of ATP at Km concentration
[35] = target: Serine/threonine-protein kinase N2 (Homo sapiens) (UniProt Q16513); assay: Inhibition of PKN2 (unknown origin) at 10 uM in presence of ATP at Km concentration
[36] = test system: A498; assay: Downregulation of CXCL5 mRNA expression in human A498 cells at 1 to 2.5 uM incubated for 48 hrs by qPCR analysis; format: functional, cell-based; details: dose 1-2.5 µM
[37] = Genotoxicity in Salmonella typhimurium TA1537 upto 100 uM in presence of S9 fraction by Ames test; format: toxicity, subcellular; details: salmonella enterica subsp. enterica serovar typhimurium, s9, 100 µM
[38] = Stability in human plasma assessed as compound remaining measured after 120 mins; format: ADME, cell-free; details: read-out: Stability
[39] = test system: A498; assay: Antimetastatic activity against human A498 cells labeled with vybrant DiD cell-labeling solution xenografted in zebrafish embryo assessed as inhibition of neovascularization by measuring decrease in fluorescence intensity of GFP labeled blood vessel at 1 uM incubated for 72 hrs by fluorescence microscopic imaging analysis; format: functional, cell-based
[40] = AUC (0 to infinity) in NOD SCID mouse at 50 mg/kg, po; format: ADME, organism-based; details: in vivo
[41] = Clearance in NOD SCID mouse at 1 mg/kg, iv; format: ADME, organism-based; details: in vivo
[42] = target: Receptor-interacting serine/threonine-protein kinase 2 (Homo sapiens) (UniProt O43353); assay: Inhibition of RIPK2 (unknown origin) at 10 uM in presence of ATP at Km concentration

Sequence of Protein kinase C eta type (Homo sapiens) (P24723 whole entry): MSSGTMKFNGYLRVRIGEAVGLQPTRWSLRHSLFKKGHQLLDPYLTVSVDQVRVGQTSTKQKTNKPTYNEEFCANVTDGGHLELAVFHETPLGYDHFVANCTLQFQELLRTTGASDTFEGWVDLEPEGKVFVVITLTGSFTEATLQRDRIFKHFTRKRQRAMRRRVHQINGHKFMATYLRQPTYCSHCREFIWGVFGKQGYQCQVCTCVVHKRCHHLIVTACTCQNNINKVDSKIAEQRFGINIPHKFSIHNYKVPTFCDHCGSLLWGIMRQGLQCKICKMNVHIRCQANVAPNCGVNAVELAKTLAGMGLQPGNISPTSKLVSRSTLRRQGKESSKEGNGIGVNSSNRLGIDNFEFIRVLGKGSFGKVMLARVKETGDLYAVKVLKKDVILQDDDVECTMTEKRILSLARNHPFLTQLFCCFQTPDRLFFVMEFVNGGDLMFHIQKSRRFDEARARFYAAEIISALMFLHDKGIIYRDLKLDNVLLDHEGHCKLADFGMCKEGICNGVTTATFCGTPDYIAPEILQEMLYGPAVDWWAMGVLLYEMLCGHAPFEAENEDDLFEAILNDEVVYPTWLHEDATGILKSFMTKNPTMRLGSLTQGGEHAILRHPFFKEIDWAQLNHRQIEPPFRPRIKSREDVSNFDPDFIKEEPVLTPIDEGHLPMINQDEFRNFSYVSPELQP
Sequence of Phosphatidylinositol 4-kinase beta (Homo sapiens) (Q9UBF8 2-816 limits assumed): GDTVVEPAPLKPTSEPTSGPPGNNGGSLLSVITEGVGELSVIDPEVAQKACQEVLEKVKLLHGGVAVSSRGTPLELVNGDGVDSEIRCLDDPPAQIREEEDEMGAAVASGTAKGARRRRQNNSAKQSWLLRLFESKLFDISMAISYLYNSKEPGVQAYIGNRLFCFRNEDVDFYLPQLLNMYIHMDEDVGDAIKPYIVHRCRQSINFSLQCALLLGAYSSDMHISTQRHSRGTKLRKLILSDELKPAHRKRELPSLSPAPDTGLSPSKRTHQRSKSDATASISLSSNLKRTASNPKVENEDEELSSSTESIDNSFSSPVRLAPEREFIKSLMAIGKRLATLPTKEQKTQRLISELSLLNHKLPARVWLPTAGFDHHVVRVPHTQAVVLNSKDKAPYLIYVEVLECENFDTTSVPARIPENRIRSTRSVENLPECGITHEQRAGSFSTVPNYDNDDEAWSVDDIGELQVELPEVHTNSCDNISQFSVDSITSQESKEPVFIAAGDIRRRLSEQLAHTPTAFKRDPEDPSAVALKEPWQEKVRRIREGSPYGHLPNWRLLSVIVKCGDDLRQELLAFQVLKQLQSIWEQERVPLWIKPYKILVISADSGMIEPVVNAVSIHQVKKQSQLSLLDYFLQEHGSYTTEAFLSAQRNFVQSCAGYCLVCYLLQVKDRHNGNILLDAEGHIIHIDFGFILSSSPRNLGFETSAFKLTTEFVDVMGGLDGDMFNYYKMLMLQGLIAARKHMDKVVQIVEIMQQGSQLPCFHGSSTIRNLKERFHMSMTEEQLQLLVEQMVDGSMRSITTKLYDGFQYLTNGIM
Sequence of Serine/threonine-protein kinase tousled-like 2 (Homo sapiens) (Q86UE8 whole entry, looked up): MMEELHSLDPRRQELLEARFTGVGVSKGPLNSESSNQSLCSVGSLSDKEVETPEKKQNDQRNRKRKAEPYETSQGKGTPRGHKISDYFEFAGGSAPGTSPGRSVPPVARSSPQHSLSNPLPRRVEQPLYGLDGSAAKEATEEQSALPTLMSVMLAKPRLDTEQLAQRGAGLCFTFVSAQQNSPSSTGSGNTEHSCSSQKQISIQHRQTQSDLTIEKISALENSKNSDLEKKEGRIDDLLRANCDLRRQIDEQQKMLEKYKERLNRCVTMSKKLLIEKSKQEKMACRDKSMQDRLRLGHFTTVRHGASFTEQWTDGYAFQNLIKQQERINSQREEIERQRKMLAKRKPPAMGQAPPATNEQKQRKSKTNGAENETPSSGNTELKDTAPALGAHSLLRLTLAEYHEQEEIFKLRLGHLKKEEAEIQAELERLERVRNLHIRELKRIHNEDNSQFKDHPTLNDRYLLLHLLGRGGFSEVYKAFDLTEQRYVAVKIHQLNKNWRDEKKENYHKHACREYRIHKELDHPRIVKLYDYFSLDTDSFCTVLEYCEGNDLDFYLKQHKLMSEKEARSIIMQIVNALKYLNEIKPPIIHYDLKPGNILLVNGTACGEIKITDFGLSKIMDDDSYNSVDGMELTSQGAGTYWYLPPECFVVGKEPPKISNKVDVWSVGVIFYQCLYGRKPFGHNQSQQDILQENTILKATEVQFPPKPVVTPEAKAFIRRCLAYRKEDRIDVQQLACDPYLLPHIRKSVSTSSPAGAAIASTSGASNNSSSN
Sequence of Focal adhesion kinase 1 (Homo sapiens) (Q05397 2-1052 limits assumed): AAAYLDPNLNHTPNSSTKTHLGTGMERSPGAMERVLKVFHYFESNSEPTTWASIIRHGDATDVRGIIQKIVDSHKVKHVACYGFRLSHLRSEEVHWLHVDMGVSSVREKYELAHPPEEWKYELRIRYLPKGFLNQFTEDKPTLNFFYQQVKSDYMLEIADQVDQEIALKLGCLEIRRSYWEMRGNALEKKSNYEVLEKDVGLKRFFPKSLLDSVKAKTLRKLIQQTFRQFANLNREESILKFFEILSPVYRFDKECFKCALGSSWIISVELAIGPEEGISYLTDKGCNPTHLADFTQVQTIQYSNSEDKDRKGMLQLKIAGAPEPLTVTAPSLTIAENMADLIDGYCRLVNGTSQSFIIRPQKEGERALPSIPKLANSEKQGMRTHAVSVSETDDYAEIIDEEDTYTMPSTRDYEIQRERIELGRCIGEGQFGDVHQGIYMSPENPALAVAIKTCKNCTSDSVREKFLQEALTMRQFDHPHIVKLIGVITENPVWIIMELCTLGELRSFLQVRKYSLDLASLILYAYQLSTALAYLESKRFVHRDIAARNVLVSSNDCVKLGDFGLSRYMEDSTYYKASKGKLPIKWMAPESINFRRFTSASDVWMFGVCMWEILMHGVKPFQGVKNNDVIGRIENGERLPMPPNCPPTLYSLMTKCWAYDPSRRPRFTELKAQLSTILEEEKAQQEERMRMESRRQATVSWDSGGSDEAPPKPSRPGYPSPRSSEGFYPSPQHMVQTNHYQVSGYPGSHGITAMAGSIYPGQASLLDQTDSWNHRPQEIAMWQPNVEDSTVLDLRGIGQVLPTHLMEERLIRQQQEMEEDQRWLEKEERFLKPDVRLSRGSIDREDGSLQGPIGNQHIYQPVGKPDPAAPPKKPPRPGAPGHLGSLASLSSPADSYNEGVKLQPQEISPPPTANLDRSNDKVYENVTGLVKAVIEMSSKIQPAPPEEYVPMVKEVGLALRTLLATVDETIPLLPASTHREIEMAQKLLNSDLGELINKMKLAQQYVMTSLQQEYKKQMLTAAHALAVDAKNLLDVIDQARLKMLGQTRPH
Sequence of Ribosomal protein S6 kinase beta-2 (Homo sapiens) (Q9UBS0 whole entry): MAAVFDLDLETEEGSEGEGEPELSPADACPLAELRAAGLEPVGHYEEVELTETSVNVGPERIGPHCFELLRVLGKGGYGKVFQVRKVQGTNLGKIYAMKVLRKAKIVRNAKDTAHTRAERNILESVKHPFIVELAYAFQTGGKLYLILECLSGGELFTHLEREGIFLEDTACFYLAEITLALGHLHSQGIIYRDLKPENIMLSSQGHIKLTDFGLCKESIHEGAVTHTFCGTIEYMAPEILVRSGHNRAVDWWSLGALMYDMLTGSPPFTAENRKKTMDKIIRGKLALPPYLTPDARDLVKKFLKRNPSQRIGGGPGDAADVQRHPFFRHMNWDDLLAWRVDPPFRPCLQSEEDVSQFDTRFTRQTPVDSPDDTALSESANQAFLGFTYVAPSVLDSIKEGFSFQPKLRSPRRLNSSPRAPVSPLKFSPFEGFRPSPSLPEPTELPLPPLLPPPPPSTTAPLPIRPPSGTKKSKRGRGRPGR
Sequence of Serine/threonine-protein kinase N2 (Homo sapiens) (Q16513 whole entry, looked up): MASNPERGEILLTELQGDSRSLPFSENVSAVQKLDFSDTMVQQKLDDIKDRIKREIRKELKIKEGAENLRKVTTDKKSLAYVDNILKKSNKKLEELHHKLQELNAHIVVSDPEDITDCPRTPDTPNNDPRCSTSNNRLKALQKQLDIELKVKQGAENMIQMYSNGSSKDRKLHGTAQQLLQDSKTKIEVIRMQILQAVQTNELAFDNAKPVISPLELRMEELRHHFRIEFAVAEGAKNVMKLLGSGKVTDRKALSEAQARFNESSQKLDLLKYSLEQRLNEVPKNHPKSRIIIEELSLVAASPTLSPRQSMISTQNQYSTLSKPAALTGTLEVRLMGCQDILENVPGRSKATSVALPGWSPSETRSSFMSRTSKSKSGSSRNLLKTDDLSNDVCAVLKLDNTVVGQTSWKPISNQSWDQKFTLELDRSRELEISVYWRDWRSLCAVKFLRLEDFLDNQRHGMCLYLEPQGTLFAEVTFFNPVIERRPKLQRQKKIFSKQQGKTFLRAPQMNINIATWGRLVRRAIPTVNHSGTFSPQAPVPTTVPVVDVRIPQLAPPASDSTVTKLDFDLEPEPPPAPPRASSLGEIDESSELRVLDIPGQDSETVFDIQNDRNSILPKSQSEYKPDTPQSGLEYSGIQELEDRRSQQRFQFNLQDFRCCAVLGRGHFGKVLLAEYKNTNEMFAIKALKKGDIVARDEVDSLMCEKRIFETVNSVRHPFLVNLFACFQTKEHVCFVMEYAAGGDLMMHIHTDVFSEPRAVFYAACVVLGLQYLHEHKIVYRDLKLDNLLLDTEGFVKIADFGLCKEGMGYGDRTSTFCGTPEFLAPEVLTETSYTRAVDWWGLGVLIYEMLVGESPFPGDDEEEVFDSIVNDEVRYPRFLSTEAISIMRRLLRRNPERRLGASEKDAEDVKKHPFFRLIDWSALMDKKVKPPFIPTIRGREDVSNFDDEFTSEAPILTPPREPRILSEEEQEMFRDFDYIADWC

SMILES: O=C(Nc1cc(Cl)cc(Cl)c1)Nc1nc2ccc([N+](=O)[O-])cc2s1
- inhibition [1]: inactive
- IC50 [2]: 3 µM
- inhibition [3]: inactive
- inhibition [4]: Active
- inhibition [5]: inactive
- Stability [6]: Stable
- inhibition [7]: inactive
- inhibition [8]: inactive
- Activity [9]: Active
- inhibition [10]: Active
- inhibition [11]: Active
- inhibition [12]: inactive
- inhibition [13]: inactive
- inhibition [14]: inactive
- hepatocyte CLint [15]: 65.8 µL/min/1e6 cells
- inhibition [16]: inactive
- solubility [17]: 1.9 µM (≈ 0.728 µg/mL)
- solubility [18]: 3.4 µM (≈ 1.3 µg/mL)
- Activity [19]: Non-Toxic
- fold change (FC) [20]: ~4
- inhibition [21]: inactive
- Tmax [22]: 1.5 h
- AUC(0-inf) [23]: 433 ng·h/mL
- IC50 [24]: 2.5 µM
- half-life [25]: 0.4 h
- inhibition [26]: inactive
- half-life [27]: > 4.82 h
- inhibition [28]: inactive
- bioavailability [29]: 39%
- inhibition [30]: inactive
- inhibition [31]: inactive
- inhibition [32]: inactive
- Vd [33]: 1 L/kg
- inhibition [34]: inactive
- inhibition [35]: inactive
- Activity [36]: Active
- Activity [37]: Non-Toxic
- remaining at 2 h [38]: 85%
- Activity [39]: Active
- AUC(0-inf) [40]: 8390 ng·h/mL
- clearance [41]: 39.3 mL/min/kg
- inhibition [42]: inactive
